Experimental data from patent US8673909B2, “Indole compounds and methods for treating visceral pain” (NeurAxon, Inc., priority 2007, dated 2014).
Entries after “also recorded” stand apart in the source; their conditions may differ.

Experiments:
[1] = molecular target: T1, Nitric oxide synthase (endothelial, human recombinant) eNOS (Homo sapiens, UniProt P29474); assay: eNOS (human) enzyme assay, [3H]-L-arginine to L-citrulline; format: biochemical; conditions: Table 10, human eNOS; read-out: eNOSh
T1 construct: purchased Axxora LLC ALX-201-070

[2] = tested on: rats with L5/L6 spinal nerve ligation; assay: Chung spinal nerve ligation (SNL) model of neuropathic-like pain; format: in vivo; conditions: rat, 30 mg/kg i.p.
Method: (a) Chung Model of Injury-induced Neuropathic-like Pain: The experimental designs for the Chung Spinal Nerve Ligation SNL Model assay for neuropathic pain are depicted in the Figure below. Nerve ligation injury was performed according to the method described by Kim and Chung (Kim and Chung, Pain 50:355-363, 1992). This technique produces signs of neuropathic dysesthesias, including tactile allodynia, thermal hyperalgesia, and guarding of the affected paw. Rats were anesthetized with halothane, and the vertebrae over the L4 to S2 region were exposed. The L5 and L6 spinal nerves were exposed, carefully isolated, and tightly ligated with 4-0 silk suture distal to the DRG. After ensuring homeostatic stability, the wounds were sutured, and the animals allowed to recover in individual cages. Sham-operated rats were prepared in an identical fashion except that the L5/L6 spinal nerves were not ligated. […] After a period of recovery following the surgical intervention, rats show enhanced sensitivity to painful and normally non-painful stimuli.

[3] = Human liver microsome in vitro metabolic stability assay; format: in vitro ADME; conditions: for Peak Area Ratio 0 min / Peak Area Ratio 15 min / Peak Area Ratio 30 min / Peak Area Ratio 60 min: human liver microsomes
Method: The compounds (10 μM) were incubated with pooled human liver microsomes in the presence and absence of the co-factor, β-Nicotinamide adenine dinucleotide phosphate (NADP^+), required for oxidative metabolism by the Cytochrome P-450 (CYP) and flavin containing monooxygenase (FMO) enzymes. A tandem liquid chromatography mass spectrometry (LC-MS/MS) method was developed and/or qualified for each compound for measuring relative stability of 6a, 6b, and 18 in the terminated reaction mixtures. The relative disappearance of the test compounds following 15, 30, and 60 min of incubation with liver microsomes, NADP^+, and an NADPH-regenerating system was determined in duplicate samples. 6a, 6b, and 18 stability following 0 and 60 min of incubation with liver microsomes in the absence of NADP^+ was also determined.
Samples for each test compound generated from the assay were analyzed as one batch by the qualified LC-MS/MS method. The sample batch consisted of the following: initial system check standards (three replicates), the assay samples (in duplicate) and the final system check standards (three replicates). A batch was considered acceptable if the system check injection acceptance criteria described above was met.
The study was conducted with cryopreserved human liver microsomes, pooled from 15 donors (mixed pool of male and female donors). Pooled donor microsomes were used in order to represent an “average” metabolic activity. The microsomes have been characterized by the supplier for Phase I (CYP1A2, CYP2A6, CYP2B6, CYP2C8, CYP2C9, CYP2C19, CYP2D6, CYP2E1, CYP3A4, CYP4A11 and FMO) and Phase II (UGT1A1, UGT1A4 and UGT1A9) enzymatic activity.
1. The assay was performed with 0.5 mg/mL human liver microsomes in 50 mM potassium phosphate buffer, pH 7.4 (PPB), and in the presence of an NADPH regenerating system (1.3 mM NADP^+, 3.3 mM glucose-6-phosphate, 0.4 U/mL glucose-6-phosphate dehydrogenase) and 3.3 mM MgCl2. All incubations were performed in duplicate. One concentration of test compound was tested (10 μM). 2. A stock solution of microsomes (20 mg/mL) was thawed in a 37° C. water bath on the day of the assay and then immediately placed on ice. The microsomes were then diluted with an appropriate volume of PPB, such that the final protein concentration in the assay was 0.5 mg/mL, and the final PPB concentration was 50 mM. 3. An appropriate aliquot of the 1 mM stock solution of the test compounds (in water) was added to the diluted microsomes, and then the mixture was warmed to 37° C. for 5 min in an incubator. […] These samples represent the time zero samples. 4. An aliquot (375 μL) of the pre-warmed liver microsomes and test compound mixture was dispensed into a well of a 24-well plate. A 125 μL aliquot of pre-warmed (37° C. for 5 min) 4-fold concentrated NADPH regenerating system solution was then added to start the reaction. Reaction mixtures (0.5 mL) were incubated in a shaking incubator (150 rpm) at 37° C. 5. One hundred μL of the reaction mixture was sampled following 15, 30, and 60 min of incubation. Each sample with test compound was immediately added to a chilled labeled centrifuge tube containing 100 μL of ice cold methanol to terminate the reaction. 6. All samples were mixed by vortex and then centrifuged (15,000×g for 10 min at 4° C.) to pellet the protein. An aliquot of the supernatant from each sample was then transferred to a clean, labeled centrifuge tube and stored at −70° C. until bioanalysis. 7. […] 8. As a control, test compound was incubated with microsomes in the absence of NADP^+. One hundred μL of the reaction mixture was sampled for control samples following 0 and 60 min of incubation as detailed above. 9. Data sheets with the date of the experiment, the Study No., the compound IDs, the sampling times, a plate map and any deviations to the protocol were recorded.
The mean of the test compound to the internal standard peak area ratios were calculated for the zero time sample.

T1 sequence (P29474 whole entry): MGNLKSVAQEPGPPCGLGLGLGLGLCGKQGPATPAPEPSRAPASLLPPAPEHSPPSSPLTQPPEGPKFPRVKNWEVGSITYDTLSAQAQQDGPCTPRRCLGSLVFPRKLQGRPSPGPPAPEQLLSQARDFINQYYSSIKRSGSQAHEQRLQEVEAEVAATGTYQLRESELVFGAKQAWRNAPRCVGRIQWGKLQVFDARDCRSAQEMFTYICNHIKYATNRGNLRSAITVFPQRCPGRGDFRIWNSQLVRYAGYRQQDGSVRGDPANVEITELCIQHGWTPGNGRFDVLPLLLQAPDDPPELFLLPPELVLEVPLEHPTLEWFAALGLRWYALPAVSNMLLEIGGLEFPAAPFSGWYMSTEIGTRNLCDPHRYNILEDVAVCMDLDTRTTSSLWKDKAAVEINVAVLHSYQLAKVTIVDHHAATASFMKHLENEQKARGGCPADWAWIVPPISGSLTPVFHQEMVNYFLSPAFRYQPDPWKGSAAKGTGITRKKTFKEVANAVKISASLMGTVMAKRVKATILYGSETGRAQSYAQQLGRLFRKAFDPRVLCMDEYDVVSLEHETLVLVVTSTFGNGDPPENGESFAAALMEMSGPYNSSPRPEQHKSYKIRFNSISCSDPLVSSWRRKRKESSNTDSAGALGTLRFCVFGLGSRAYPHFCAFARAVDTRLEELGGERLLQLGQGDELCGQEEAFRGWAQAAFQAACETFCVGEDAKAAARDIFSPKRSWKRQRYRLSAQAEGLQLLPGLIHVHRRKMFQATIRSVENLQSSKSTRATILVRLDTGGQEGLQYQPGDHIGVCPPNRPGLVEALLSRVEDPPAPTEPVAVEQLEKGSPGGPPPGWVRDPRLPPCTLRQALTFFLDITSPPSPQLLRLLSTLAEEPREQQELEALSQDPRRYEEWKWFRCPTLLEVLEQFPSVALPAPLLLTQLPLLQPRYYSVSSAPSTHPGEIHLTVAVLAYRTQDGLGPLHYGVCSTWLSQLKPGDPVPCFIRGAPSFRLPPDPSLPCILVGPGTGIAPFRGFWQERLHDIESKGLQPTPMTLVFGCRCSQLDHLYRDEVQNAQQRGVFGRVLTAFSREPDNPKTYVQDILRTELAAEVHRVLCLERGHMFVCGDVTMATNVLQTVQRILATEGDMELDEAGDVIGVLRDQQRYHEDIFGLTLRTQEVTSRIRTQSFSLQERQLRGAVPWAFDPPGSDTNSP

IC50 [1] [µM] | Peak Area Ratio 0 min ([3]; +NADP+, 10 μM) | Peak Area Ratio 15 min ([3]; +NADP+, 10 μM) | Peak Area Ratio 30 min ([3]; +NADP+, 10 μM) | Peak Area Ratio 60 min ([3]; +NADP+, 10 μM) | half-life at 10 μM ([3]; both sexes, pooled human liver microsomes, pH 7.4, human liver microsomes, with NADPH regenerating system, read-out: estimated half-life for disappearance from the microsomal reaction mixture) [min] | Peak Area Ratio 0 min ([3]; −NADP+, 10 μM) | Peak Area Ratio 60 min ([3]; −NADP+, 10 μM) | Compound | reversal of tactile hyperthesia [2] | reversal of thermal hyperalgesia (antihyperalgesic effect) [2] | metabolic stability in human liver microsomes ([3]; 60 min incubation, 10 μM)
45.5 | 25.8 | 25.8 | 23.7 | 19.4 | 132 | 22.0 | 20.2 | CN1CCC(c2c[nH]c3ccc(NC(=N)c4cccs4)cc23)C1 (single isomer, unassigned) [Compound 6a, N-(3-(1-Methylpyrrolidin-3-yl)-1H-indol-5-yl)thiophene-2-carboximidamide] | not | only weakly | 
20.6 | 20.6 | 20.5 | 21.4 | 20.5 |  | 20.2 | 20.6 | CN1CCC(c2c[nH]c3ccc(NC(=N)c4cccs4)cc23)C1 (single isomer, unassigned) [Compound 6b, N-(3-(1-Methylpyrrolidin-3-yl)-1H-indol-5-yl)thiophene-2-carboximidamide] | reversal of tactile hyperthesia | reversal of thermal hyperalgesia; also recorded: clear antihyperalgesic effect | metabolically stable over 60 min of incubation
